# Source: PubChem BioAssay (NCI)
#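 In this assay, cells in 96-well plates receive the compound at five concentrations for 48 hours. Endpoints are linearly interpolated between the surrounding concentrations. The concentration for 50% growth inhibition is given as GI50. The concentration for full growth arrest is given as TGI.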
# How the values were obtained:
# Experiment in all cases: NCI-60 cell line screen, 48 h
# [1] = test system: U251 CNS
# [2] = test system: CAKI-1 renal
# [3] = test system: MALME-3M melanoma
# [4] = test system: NCI-H460 lung
# [5] = test system: OVCAR-4 ovarian
# [6] = test system: UO-31 renal
# [7] = test system: SK-OV-3 ovarian
# [8] = test system: NCI-H23 lung
# [9] = test system: HOP-62 NSCLC
# [10] = test system: SF-539 CNS
# [11] = test system: IGROV1 ovarian
# [12] = test system: RPMI-8226 leukemia
# [13] = test system: SK-MEL-2 melanoma
# [14] = test system: CCRF-CEM leukemia
# [15] = test system: MDA-MB-468 breast
# [16] = test system: SN12C renal
# [17] = test system: NCI-H522 lung
# [18] = test system: T-47D breast
# [19] = test system: HCC-2998 colon
# [20] = test system: SNB-75 CNS
# [21] = test system: SK-MEL-28 melanoma
# [22] = test system: KM12 colon
# [23] = test system: SNB-19 CNS
# [24] = test system: SF-268 CNS
# [25] = test system: SK-MEL-5 melanoma
# [26] = test system: OVCAR-8 ovarian
# [27] = test system: LOX IMVI melanoma
# [28] = test system: SF-295 CNS
# [29] = test system: RXF 393 renal
# [30] = test system: MDA-MB-231 breast
# [31] = test system: 786-0 renal
# [32] = test system: BT-549 breast
# [33] = test system: HS 578T breast
# [34] = test system: EKVX NSCLC
# [35] = test system: HOP-92 NSCLC
# [36] = test system: SW-620 colon
# [37] = test system: OVCAR-5 ovarian
# [38] = test system: NCI-H226 lung
# [39] = test system: TK-10 renal
# [40] = test system: K-562 leukemia
# [41] = test system: HCT-15 colon
# [42] = test system: MCF7 breast
# [43] = test system: A498 renal
# [44] = test system: NCI/ADR-RES ovarian
# [45] = test system: A549 NSCLC
# [46] = test system: MDA-MB-435
# [47] = test system: ACHN renal
# [48] = test system: UACC-62 melanoma
# [49] = test system: COLO 205 colon
# [50] = test system: OVCAR-3 ovarian
structure (smiles),measurement,setting,value
Cc1ccc(/C(CSc2nnc(-c3c[nH]c4ccccc34)n2-c2ccccc2)=N/O)cc1,GI50,[1],8.22 µM
same,TGI,[1],> 100 µM
same,GI50,[2],1.63 µM
same,TGI,[2],3.06 µM
same,GI50,[3],2.26 µM
same,TGI,[3],5.57 µM
same,GI50,[4],3.18 µM
same,TGI,[4],12.2 µM
same,GI50,[5],1.75 µM
same,TGI,[5],3.51 µM
same,GI50,[6],1.82 µM
same,TGI,[6],4.15 µM
same,GI50,[7],1.68 µM
same,TGI,[7],3.64 µM
same,GI50,[8],10.1 µM
same,TGI,[8],52.2 µM
same,GI50,[9],1.69 µM
same,TGI,[9],3.42 µM
same,GI50,[10],2.06 µM
same,TGI,[10],4.41 µM
same,GI50,[11],2.09 µM
same,TGI,[11],4.35 µM
same,GI50,[12],2.05 µM
same,TGI,[12],4.81 µM
same,GI50,[13],2.88 µM
same,TGI,[13],8.96 µM
same,GI50,[14],2.14 µM
same,TGI,[14],4.98 µM
same,GI50,[15],1.5 µM
same,TGI,[15],2.91 µM
same,GI50,[16],2.33 µM
same,TGI,[16],6.8 µM
same,GI50,[17],2.24 µM
same,TGI,[17],6.04 µM
same,GI50,[18],2.07 µM
same,TGI,[18],4.75 µM
same,GI50,[19],2.09 µM
same,TGI,[19],3.93 µM
same,GI50,[20],1.4 µM
same,TGI,[20],2.77 µM
same,GI50,[21],5.67 µM
same,TGI,[21],38.7 µM
same,GI50,[22],8.65 µM
same,TGI,[22],> 100 µM
same,GI50,[23],1.87 µM
same,TGI,[23],3.97 µM
same,GI50,[24],1.99 µM
same,TGI,[24],4.66 µM
same,GI50,[25],4.76 µM
same,TGI,[25],48.1 µM
same,GI50,[26],2.19 µM
same,TGI,[26],4.89 µM
same,GI50,[27],1.75 µM
same,TGI,[27],3.17 µM
same,GI50,[28],1.64 µM
same,TGI,[28],3.18 µM
same,GI50,[29],1.85 µM
same,TGI,[29],3.76 µM
same,GI50,[30],1.77 µM
same,TGI,[30],3.33 µM
same,GI50,[31],10 µM
same,TGI,[31],31.4 µM
same,GI50,[32],1.59 µM
same,TGI,[32],3.03 µM
same,GI50,[33],2.07 µM
same,TGI,[33],4.82 µM
same,GI50,[34],2.15 µM
same,TGI,[34],5.58 µM
same,GI50,[35],11.9 µM
same,TGI,[35],37.4 µM
same,GI50,[36],1.79 µM
same,TGI,[36],3.55 µM
same,GI50,[37],1.69 µM
same,TGI,[37],3.11 µM
same,GI50,[38],1.63 µM
same,TGI,[38],3.36 µM
same,GI50,[39],1.9 µM
same,TGI,[39],3.87 µM
same,GI50,[40],2.01 µM
same,TGI,[40],4.97 µM
same,GI50,[41],1.75 µM
same,TGI,[41],3.34 µM
same,GI50,[42],2.42 µM
same,TGI,[42],7.01 µM
same,GI50,[43],24.8 µM
same,TGI,[43],89.1 µM
same,GI50,[44],2 µM
same,TGI,[44],3.9 µM
same,GI50,[45],3.55 µM
same,TGI,[45],69.7 µM
same,GI50,[46],1.63 µM
same,TGI,[46],3.05 µM
same,GI50,[47],1.79 µM
same,TGI,[47],3.35 µM
same,GI50,[48],1.69 µM
same,TGI,[48],3.26 µM
same,GI50,[49],3.77 µM
same,TGI,[49],37.4 µM
same,GI50,[50],4.26 µM
same,TGI,[50],25.5 µM
